This is an account of results in paper PMC2694832, “Pharmacokinetics, tissue distribution and mass balance of radiolabeled dihydroartemisinin in male rats” (Malaria Journal, 2009).

Read-outs that look alike come from different tables or passages of the source.

For data set [1] the following is noted: rats; cited from earlier work.
Data set [2] is described as follows: Pharmacokinetic study of [^14C] DHA and unchanged DHA, single i.v. dose. The format is in vivo, rats. On the procedure:
Traditional PK studies involve intermittent blood sampling and subsequent determination of drug concentrations in whole blood and plasma. The Culex automated blood sampler provides a way for blood withdrawal at preprogrammed intervals, which is more accurate and less labor intensive. Six rats in the PK group were implanted with a jugular vein catheter under an isofluorane anesthaesia. After the surgery, rats were allowed to recover for 96 hours with free access to food and water. The rats were dosed single i.v. at 3 mg/ml/kg with [^14C] DHA (20 μCi/kg), which was prepared as a 25% cremophore/0.9% saline solution, through the tail vein. […] PK evaluation of [^14C] DHA in plasma and whole blood, as well as unchanged DHA in plasma was conducted in individual rats.
Total radioactivity in the collected tissue samples were quantified in duplicate. Weighed tissue aliquots (~0.2 g) were digested overnight in 2 ml of Solvable® tissue solubilizer (Perkin-Elmer Life and Analytical Sciences, Boston, MA) at 50°C. Coloured samples were decolourized by adding a maximum of 0.2 ml of 30% H2O2 for 30–60 minutes. Scintillation cocktail (Hyonic Fluor; Perkin-Elmer Boston. Massachusetts, USA) was then added and radioactivity determined in a Perkin-Elmer Tri-Carb 3100 TR scintillation spectrophotometer (Packard Instrument Co., Downers Grove, Illinois, USA). Faeces and intestinal contents were thoroughly homogenized before taking aliquots. Plasma was also analysed using the HPLC-ECD system to measure the concentration of unchanged DHA, as described by Li et al.
The analysis of cold DHA in plasma was performed according to a previously described HPLC method with the following modifications: for simultaneous determination of artemisinin and DHA (artemisinin as an internal standard), the Agilent Eclipse XDB-C18 column 5 μm (4.6 × 150 mm) was used with an isocratic mobile phase consisting of 40% acetonitrile: 60% ESA Acid Metabolite A (70–4835) in the reductive mode (-400 mV) for the quantification of DHA. Validation and reproducibility were evaluated and a lower limit of quantitation (LLQ) of 2.31 ng/ml for DHA was determined. The inter- and intra-day coefficient of variation for accuracy and precision were all within ± 10%.
For pharmacokinetics, the concentration-time data of [^14C] DHA in plasma and whole blood collected during the 192 hour treatment period was fitted to a three-compartment open model using a nonlinear, extended least-square fitting procedure (WinNonlin 5.2, Pharsight Corporation, Cary, NC) using weighted (1/concentration) nonlinear regression. The area under the curve (AUC) was determined by the linear trapezoidal rule with extrapolation to infinity based on the concentration of the last time point divided by the terminal rate constant. Extrapolations to time zero were done using zero concentration for intravenous dosing and using C0 values determined from the three-compartment model equation at time zero by i.v. route. Mean clearance rate (CL) was determined by dividing the dose by the AUCinf for i.v. injection. Mean residence time (MRT) was determined by dividing the area under the first moment curve (AUMC) by the AUC. The volume of distribution at steady state (Vss) was calculated as the product of CL and MRT. The concentration-time data of unchanged DHA was fitted to a two-compartment open model. Statistical analysis was conducted with Microsoft Excel using a Student's t-test for dependent samples to compare means of paired and unpaired samples between two groups.

Data set [3] can be described thus: Mass balance and urinary/faecal elimination of [^14C] DHA. The data set is classed as in vivo, rats. The settings on record: rats i.v. The procedure:
Metabolic cages were washed with a solution of 2% Count-off® (Perkin-Elmer Life and Analytical Sciences, Boston, Massachusetts, USA) and the volume was measured. Duplicate portions (0.1 ml urine; 1 ml cage rinse) of each sample were radio-assayed after the addition of scintillation cocktail. The weights of individual faecal samples were obtained and the samples were subsequently homogenized in four volumes of de-ionized water. Quadruplicate portions (1.0 ml) of each homogenate were decolourized with 30% hydrogen peroxide, and digested with Solvable® tissue solubilizer. After acidification with glacial acetic acid and addition of scintillation cocktail, samples were assayed for radioactivity. The samples were kept in at -20°C for two weeks prior to analysis.

The next data set concerns rat plasma proteins. As to the kind of experiment: Protein binding of [^14C] DHA, equilibrium dialysis, rat plasma. The data set is classed as in vitro ADME. The procedure:
(§1) Human blood samples (five men and five women) were freshly obtained from subject volunteers at the Department of Clinical Trials, WRAIR. Rat samples were freshly collected from five male and five female rats. Equilibrium dialysis was performed using Teflon dialysis chambers and Diachema standard membranes as described by Li and Hümpel. The GD-4/90 Equilibrium Dialyzer (MM Developments, Ottawa) contained 20 micro-dialysis cells (2.0 ml/chamber). The molecular weight cutoff for dialysis membranes was 5000 D. Equilibrium was reached after four hours, when cells were rotated at 16 rpm and 37°C. Drugs were dissolved in plasma samples with various concentrations (0.15 – 57800 ng/ml) and all experiments were carried out for five hours.

The test system of another data set is human plasma proteins. As to the kind of experiment: Protein binding of [^14C] DHA, equilibrium dialysis, human plasma. The data set is classed as in vitro ADME. The note with it: both sexes; undiluted human plasma, 0.15 to 57800 ng/ml, 37°C, five hours; read-out: plasma protein binding percentage. The procedure: as §1
In general terms: In equilibrium dialysis free small molecules cross a membrane that holds back macromolecules.

[4] abbreviates: unchanged DHA in plasma, rats single i.v. 3 mg/kg.

For the compound `C[C@H]1[C@H](OC(=O)CCC(=O)O)O[C@@H]2O[C@@]3(C)CC[C@H]4[C@H](C)CC[C@@H]1[C@@]24OO3` [Artesunate], in data set [1], the “plasma half-life of unchanged AS, first phase” value is 8.4 min.
By AUC(0-inf) is commonly meant total exposure, with the tail of the curve extrapolated. Low values mean low exposure, high ones high exposure. As a reminder, the MRT is a mean duration of stay, worked out from the concentration-time curve. For orientation: AUC means the area under the concentration-time curve, a measure of exposure. Low readings indicate less exposure, high ones more exposure. Broadly, the Tmax is the time from dosing to the highest level. As usually defined, the clearance is a measure of how efficiently the substance is removed, as volume per time. Low values mean inefficient removal, high ones efficient removal. One may read the Cmax as the highest concentration seen after dosing. Turning to `C[C@H]1[C@@H](O)O[C@@H]2O[C@@]3(C)CC[C@H]4[C@H](C)CC[C@@H]1[C@@]24OO3` [DHA, 10'dihydro-artemisinin], the AUC(0-inf) in data set [2] (rat, iv, unchanged DHA in plasma, two-compartment, rats single i.v. 3 mg/kg) turned out to be 933 ± 125 ng·h/mL. Besides, in data set [2] (rat, iv, unchanged DHA in plasma, two-compartment, rats single i.v. 3 mg/kg, read-out: MRT), the MRT was found to be 29.4 ± 7.2 min. Moreover, the Vd in data set [2] (rat, iv, unchanged DHA in plasma, two-compartment, rats single i.v. 3 mg/kg, read-out: Vss) was 1.66 ± 0.54 L/kg. Also, the AUC in data set [2] (rat, iv, unchanged DHA in plasma, rats i.v. 3 mg/kg) was found to be 933 ng·h/mL. Further, in data set [2] (rat, iv, unchanged DHA in plasma, rats single i.v. 3 mg/kg, read-out: Tmax), the Tmax stood at 1.2 min. In data set [2] (rat, plasma, iv, 3 mg/kg, unchanged DHA in plasma, two-compartment, rats single i.v. 3 mg/kg), this compound showed a clearance of 55.8 mL/min/kg. In addition, the Cmax in data set [2] (rat, plasma, iv, 3 mg/kg, unchanged DHA in plasma, two-compartment, rats single i.v. 3 mg/kg, read-out: Cmax) came to 2000 ± 507 ng/mL; in data set [2] (rat, plasma, iv, 3 mg/kg, unchanged DHA in plasma, rats single i.v. 3 mg/kg, read-out: Cmax at first peak) it was 2000 ± 507 ng/mL; in data set [2] (rat, plasma, iv, 3 mg/kg, unchanged DHA in plasma, rats single i.v. 3 mg/kg, read-out: Cmax at second peak), 1640 ± 468 ng/mL. For the same compound, the half-life is 15 ± 2.4 min in data set [2] (rat, plasma, iv, 3 mg/kg, unchanged DHA in plasma, two-compartment, rats single i.v. 3 mg/kg, read-out: t1/2 – alpha (converted)) and 61.8 ± 11.4 min in data set [2] (rat, plasma, iv, 3 mg/kg, unchanged DHA in plasma, two-compartment, rats single i.v. 3 mg/kg, read-out: t1/2 – beta (terminal) (converted)). In data set [2] (rats, plasma, urine and faeces, single i.v. 3 mg/20 μCi/kg), the “duration of total radioactivity (long-lasting metabolites)” value was above 192 h. Besides, the “time to complete elimination of unchanged DHA” value in data set [2] (rats, single i.v. 3 mg/kg) is at most 6 h. The same compound came in with a CL in data set [2] (unchanged DHA in plasma, two-compartment, rats single i.v. 3 mg/kg, 3 mg/kg) of 55.8337 ± 7.0562 mL/min/kg. The “time of second peak” value is 23 min in data set [2] (unchanged DHA in plasma, rats i.v. 3 mg/kg) and 22.8 min in data set [2] (setting [4]). The “time of first peak” value in data set [2] (setting [4]) is listed as 0.02 h. Further, the “elimination via metabolism (hydrolysis and oxidation)” value in data set [3] was found to be 99%. Also, the “unchanged DHA eliminated by direct excretion from kidneys” value in data set [3] is on record as < 1 % of dose. In addition, the fraction unbound at 5 h with rat plasma proteins (both sexes, undiluted rat plasma, 0.15 to 57800 ng/ml, 37°C, five hours, read-out: plasma protein binding percentage) was 0.18 to 0.24; with human plasma proteins it was 0.18 to 0.24. Moreover, the “dependence of binding capacity on drug concentration” value in the data set on rat plasma proteins (rat plasma) is listed as “not significantly different”.
